Molecules are shown by their SMILES.

For orientation: IC50 means the concentration needed to halve the response being measured.

The nature of data set [1]: in vitro.
Data set [2] has as its system L1210, CEM and HeLa cells. The note with it: for cytostatic activity (in words): tumour cell lines.
The nature of data set [3]: in vitro. The conditions noted are these: mouse (L1210), human (CEM, HeLa).

In the case of `C#C[C@@]1(O)[C@@H](CO)O[C@@H](n2cnc3c(NCc4cccc(Cl)c4)nc(Cl)nc32)[C@@H]1O` [Compound 10], the CC50 in “in vitro [1]” amounted to 34.5 µM. The “times less potent than EAdo” value in data set [2] (cytostatic potency relative to EAdo in the three cell lines) is recorded as “at least 30”. This compound returned an IC50 in “in vitro [3]” of 22 to 50 µM.
As for `C#C[C@@]1(O)[C@@H](CO)O[C@@H](n2cnc3c(N)ncnc32)[C@@H]1O` [Compound 1, 3′-C-ethynyladenosine, reference compound], the “cytostatic activity (in words)” value in data set [2] is given as “potent cytostatic activity”.
Still for that read-out and setting: to `C#C[C@@]1(O)[C@@H](CO)O[C@@H](n2cnc3c(N)nc(Cl)nc32)[C@@H]1O` [Compound 7] belongs “did not show any cytostatic activity”.

These data come from article PMC7126545 (Bioorganic & Medicinal Chemistry Letters, 2016).
